Results on four molecules are retold here after patent publication US8124381B2, “Process and materials for production of glucosamine and N-acetylglucosamine” (Arkion Life Sciences, priority 2002, dated 2012).

For series [1], the target named is T1, E. coli glucosamine synthase GlmS*54 (Escherichia coli, UniProt P17169, A39T/G472S/R250C).
T1 construct: made in house; host or cells: E. coli 7107-18 (printed '7017-18'; T7-glmS*54 integrated at galK) and strains derived from it; crude extract
The series is described as follows: Effects of phosphorylated sugars on glucosamine synthase. The series is classed as biochemical. The method, then:
Glucosamine synthetase activity was examined in the presence of various phosphorylated sugars. Crude enzyme extracts was prepared from cells of 7017-18 grown in shake flasks for 24 hours with lactose induction.

Substrate in series [2]: O=P(O)(O)OC[C@H]1OC(O)(CO)[C@@H](O)[C@@H]1O
In words: GlmS inhibition and Michaelis-Menten kinetics. Format: biochemical, Escherichia coli. The method, then: Different glucosamine synthetase enzymes, including native B. subtillus GlmS, native E. coli GlmS and mutant E. coli GlmS, were studied in vitro. Cells of various E. coli strains were grown in the M9A medium, harvested, and frozen. Cells extracts were prepared and the glucosamine synthetases were characterized and compared.
Enzyme sensitivities to the reaction product glucosamine-6-P were examined. […] This figure highlights the dramatic difference between the wild type GlmS and these mutant GlmS strains.
The Mutants 2123-54 and the B. subtilis enzyme have higher Ki values (Table 6). Measured Ki constants for several of these mutants are 4 to 8 times the value for the native enzyme in strain 2123-12. From shake flask studies it is apparent that decreased sensitivity to glucosamine-6-P allows higher glucosamine levels to accumulate.
These values are slightly higher than those obtained with the native enzyme.

T1 sequence (P17169 2-609 A39T/R250C/G472S): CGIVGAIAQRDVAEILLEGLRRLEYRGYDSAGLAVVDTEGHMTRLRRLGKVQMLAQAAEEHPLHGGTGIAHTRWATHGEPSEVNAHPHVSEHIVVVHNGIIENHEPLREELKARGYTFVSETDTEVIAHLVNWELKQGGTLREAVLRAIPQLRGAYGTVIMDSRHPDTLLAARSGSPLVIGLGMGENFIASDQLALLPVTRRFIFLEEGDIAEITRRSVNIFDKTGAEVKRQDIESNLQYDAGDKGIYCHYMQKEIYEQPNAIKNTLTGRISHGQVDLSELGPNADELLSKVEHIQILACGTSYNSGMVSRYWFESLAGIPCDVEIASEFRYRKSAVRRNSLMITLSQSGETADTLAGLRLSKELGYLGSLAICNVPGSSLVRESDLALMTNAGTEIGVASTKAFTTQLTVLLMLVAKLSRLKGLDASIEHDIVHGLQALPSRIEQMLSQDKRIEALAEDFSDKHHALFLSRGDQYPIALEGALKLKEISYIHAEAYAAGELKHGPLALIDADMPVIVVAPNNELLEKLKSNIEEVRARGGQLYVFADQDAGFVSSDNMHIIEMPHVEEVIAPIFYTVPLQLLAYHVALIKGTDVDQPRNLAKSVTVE

In series [1], `CC(=O)N[C@H]1C(OP(=O)(O)O)O[C@H](CO)[C@@H](O)[C@@H]1O` (some centres unmarked) [N-acetylglucosamine-1-P, N-acetylglucosamine-1-phosphate] showed an activity at 10000 µM of 100%.
As for `N[C@H]1C(OP(=O)(O)O)O[C@H](CO)[C@@H](O)[C@@H]1O` (some centres unmarked) [glucosamine-1-P, glucosamine-1-phosphate], in series [1], the activity at 10000 µM worked out at 79% and the “inhibition of glucosamine synthetase (in words)” value was “inhibited”.

B1: E. coli GlmS mutant GlmS*124, SEQ ID NO:8 (Leu469Pro) (strain 2123-124) (Escherichia coli K-12; L469P) (protein)
chain: CGIVGAIAQRDVAEILLEGLRRLEYRGYDSAGLAVVDAEGHMTRLRRLGKVQMLAQAAEEHPLHGGTGIAHTRWATHGEPSEVNAHPHVSEHIVVVHNGIIENHEPLREELKARGYTFVSETDTEVIAHLVNWELKQGGTLREAVLRAIPQLRGAYGTVIMDSRHPDTLLAARSGSPLVIGLGMGENFIASDQLALLPVTRRFIFLEEGDIAEITRRSVNIFDKTGAEVKRQDIESNLQYDAGDKGIYRHYMQKEIYEQPNAIKNTLTGRISHGQVDLSELGPNADELLSKVEHIQILACGTSYNSGMVSRYWFESLAGIPCDVEIASEFRYRKSAVRRNSLMITLSQSGETADTLAGLRLSKELGYLGSLAICNVPGSSLVRESDLALMTNAGTEIGVASTKAFTTQLTVLLMLVAKLSRLKGLDASIEHDIVHGLQALPSRIEQMLSQDKRIEALAEDFSDKHHAPFLGRGDQYPIALEGALKLKEISYIHAEAYAAGELKHGPLALIDADMPVIVVAPNNELLEKLKSNIEEVRARGGQLYVFADQDAGFVSSDNMHIIEMPHVEEVIAPIFYTVPLQLLAYHVALIKGTDVDQPRNLAKSVTVE
notes: made in house; host or cells: E. coli strain 2123-124, cell extract
A word on the Km: it is the concentration of substrate that gives half-maximal velocity. As to B1, the Km in series [2] worked out at 1100 µM.

B2: E. coli GlmS mutant GlmS*72, SEQ ID NO:14 (Glu15Lys, Asp387Val, Ser450Pro, Glu525Gly) (strain 2123-72) (Escherichia coli K-12; D387V/E15K/E525G/S450P) (protein)
chain: CGIVGAIAQRDVAKILLEGLRRLEYRGYDSAGLAVVDAEGHMTRLRRLGKVQMLAQAAEEHPLHGGTGIAHTRWATHGEPSEVNAHPHVSEHIVVVHNGIIENHEPLREELKARGYTFVSETDTEVIAHLVNWELKQGGTLREAVLRAIPQLRGAYGTVIMDSRHPDTLLAARSGSPLVIGLGMGENFIASDQLALLPVTRRFIFLEEGDIAEITRRSVNIFDKTGAEVKRQDIESNLQYDAGDKGIYRHYMQKEIYEQPNAIKNTLTGRISHGQVDLSELGPNADELLSKVEHIQILACGTSYNSGMVSRYWFESLAGIPCDVEIASEFRYRKSAVRRNSLMITLSQSGETADTLAGLRLSKELGYLGSLAICNVPGSSLVRESVLALMTNAGTEIGVASTKAFTTQLTVLLMLVAKLSRLKGLDASIEHDIVHGLQALPSRIEQMLPQDKRIEALAEDFSDKHHALFLGRGDQYPIALEGALKLKEISYIHAEAYAAGELKHGPLALIDADMPVIVVAPNNGLLEKLKSNIEEVRARGGQLYVFADQDAGFVSSDNMHIIEMPHVEEVIAPIFYTVPLQLLAYHVALIKGTDVDQPRNLAKSVTVE
notes: made in house; host or cells: E. coli strain 2123-72 (from 7101-17(DE3), plasmid with glmS*72 integrated), cell extract
For the molecule B2, the Km in series [2] came out at 950 µM.
